Test results taken from EP2633855A1, “Protease inhibitors for treating Trichomonas gallinae infections” (Veterinärmedizinische Universität Wien, priority 2012, dated 2013).
Square brackets hold non-standard residues; d marks the D form. Peptide text beside a SMILES is read from it. * marks the point of attachment. Sta = CC(C)C[C@H](N)[C@@H](O)CC(=O)O; Isovaleryl = CC(C)CC(=O)*

Experiments:
[1] = tested on: embryonated spf chicken eggs; assay: Toxicity of peptidase inhibitors in PBS to non-infected spf chicken embryos (control groups); type: in vivo
Experimental: For each treatment, ten 9-day old embryonated spf chicken eggs were inoculated with 200 µl of the individual sample of protozoa suspended in sterile PBS via the allantoic cavity following a standard egg inoculation procedure (Senne, 1998). In addition, ten eggs were inoculated in the same way with sterile PBS with and without an adjusted concentration of peptidase inhibitors, to be used as a control. The inoculated eggs were sealed with melted paraffin and incubated at 37°C at a relative humidity of 55-60%. The survival of the embryos was monitored by candling the eggs daily. At the end of the incubation period (10 days) the eggs were placed at -20°C for two hours to kill the embryos and to avoid hatching. The allantoic fluid was harvested and examined microscopically for the detection of flagellates, before the embryos were necropsied. Afterwards, samples from different organs (liver, heart, lung, proventriculus, gizzard, kidney, spleen, and intestine) were preserved in 10% buffered neutral formalin and later on embedded in paraffin wax for histological examination. […] Additionally, samples from liver and gut were preserved at -20°C for polymerase chain reaction (PCR). DNA was extracted from tissue samples applying the Dneasy® Tissue Kit (Qiagen, Vienna, Austria), according to the manufacturer instructions. […]

[2] = tested on: peptidase activity in T. gallinae cell-free filtrates; assay: Conventional 1-D SDS-PAGE of cell-free filtrates with and without peptidase inhibitors; type: biochemical; details: clone 5895-C1/06 P49
Experimental: (§1) For analysis in one- (1-D) and two-dimensional (2-D) zymogram and conventional SDS PAGE the filtrate was prepared in the following way: T. gallinae clonal culture was grown in Hollander fluid (HF) medium as described recently (Amin et al., Exp. Parasitol. 124 (2010), 202-208). After 24 h of incubation, the trichomonad culture was centrifuged at 3300 x g for 5 min; the pellet was washed three times in phosphate buffer saline (PBS, pH 7.2) and was then suspended in 1 ml HF medium without serum. Motile trichomonads were counted by a Neubauer cell counting chamber (Reichert, Buffalo, NY). The concentration of the inoculum was adjusted to 10^7 motile trophozoites. 10^7 trichomonad cells were grown for 3, 6, 16, 24 h in 10 ml HF medium without serum and the cell-free filtrate was prepared. The trichomonad culture was centrifuged at 3300 x g for 5 min, and then the supernatant from the culture was filtered through 0.22 µm cellulose acetate filters (Millipore, VWR). Afterwards, 1 mM PMSF, 5 µM of Pepstatin A, 1 mM TLCK and 270 µM E-64 were added to the cell-free filtrate and incubated for 30 min on ice before concentrating the proteins. Two types of filters were used to concentrate the proteins of the cell-free filtrate. Firstly, CEN-TRIPREP® Centrifugal Filter Device 3K (Millipore, Vienna, Austria) was applied to reduce the initial volume of the filtrate (15ml) to 500 µl. After that, the samples were more concentrated using Amicon® Ultra-0.5 3K centrifugal filter device (Millipore, Vienna, Austria) to obtain a final volume of 100 µl. Both types of filters were used following manufacturer's instructions. With the samples for 2-dimensional (2-D) sodium dodecyl sulphate (SDS)-polyacrylamide gel electrophoresis (PAGE) buffer was exchanged (three times) to 10 mM Tris-Cl pH 7.2 by using the same Amicon® Ultra-0,5 3K centrifugal filter device (Millipore,Vienna, Austria). For all samples the protein concentration was measured by Bradford Reagent (Fermentas, Thermo Scientific).
(§2) For one dimension (1-D) zymographic analysis, 24 µg of concentrated p 183 proteins from cell free filtrates with and without peptidase inhibitors were separated by discontinuous SDS-PAGE (8%) copolymerized with 0.2% gelatin as substrate. In parallel, the same samples were investigated by conventional 1-D SDS-PAGE (8%). After electrophoresis, the substrate gel was incubated in 2.5% Triton X-100 (Bio-Rad Laboratories GmbH, Vienna, Austria) for 1 h at room temperature to remove SDS. Subsequently the peptidases were activated by incubating the gel in zymogram development buffer (Bio-Rad Laboratories GmbH, Vienna, Austria) for 24 h at 37 °C. […]

[3] = tested on: LMH cells; assay: CellTiter 96 aqueous one solution cytotoxicity assay of cell-free filtrate on LMH cells; type: cell-based, chicken; details: Gallus gallus; 270 µM E-64; 72 h of incubation; clone 5895-C1/06, passage 18; filtrate without E-64: 70.9%; read-out: cytotoxicity of the cell-free filtrate on LMH cells in the presence of the inhibitor
Experimental: (§3) For the analysis on LMH monolayers cell-free filtrate was prepared in the following way: 10^7 cells of a clonal culture of T. gallinae were incubated at 37°C for 24 h in the same medium as used for growth of LMH. Before incubation the protozoal cells were washed three times in PBS, (pH 7.2), trichomonad culture was centrifuged at 3300 x g for 5 min and then the supernatant from the culture was filtered through 0.22 µm cellulose acetate filters (Millipore, VWR).
In order to investigate the cytotoxicity of cell-free filtrate on cell culture, CellTiter 96® aqueous one solution cell proliferation assay (Promega Corporation, Madison, USA) was used following manufacturer's instructions. The cell-free filtrate from 10^7 trichomonad cells was prepared as described above and 270 µM of E-64 as cysteine peptidase inhibitor was added to cell-free filtrate before its incubation with the monolayer. Cytotoxicity assay was performed as described recently by Amin et al. (2011).

[4] = tested on: Entamoeba histolytica; details: SCID mice; preincubation of the trophozoites with the inhibitor; cited from earlier work
[5] = tested on: T. gallinae clone 5895-C1/06 P18; assay: Infection of spf chicken embryos with T. gallinae coincubated with peptidase inhibitors (mortality, necropsy, histology, PCR, ISH); type: in vivo, Trichomonas gallinae; details: for detection of trichomonad nucleic acid by ISH / histopathological examination of different organs of infected embryos: spf chicken embryos
Experimental: (§4) The axenic clonal cultures of T. gallinae were grown in Hollander fluid (HF) medium, as described above (Amin et al., 2010). At first, clonal cultures which underwent only a few passages were investigated. Higher passages were obtained by transferring 1 ml of the respective culture into 9 ml of fresh HF medium every 48 h. Assessing the virulence as well as the effect of peptidase inhibitors was performed with an equal passage number (P18). After 24 h of incubation, the cultures were centrifuged at 3300 x g for 5 min (Hettich Rotanta 460, Tuttlingen, Germany). The pellet was washed three times by addition of phosphate buffer saline (PBS, pH 7.2) followed by centrifugation. For counting cells were suspended in 1 ml PBS buffer and motile trichomonads were determined by a Neubauer cell counting chamber (Reichert, Buffalo, NY, USA). The concentration of the inoculum was adjusted to contain approximately 5x10^6 actively motile trophozoites suspended in 200 µl PBS buffer. The viability of trichomonad cells was evaluated using trypan blue staining.
For each treatment, ten 9-day old embryonated spf chicken eggs were inoculated with 200 µl of the individual sample of protozoa suspended in sterile PBS via the allantoic cavity following a standard egg inoculation procedure (Senne, 1998). In addition, ten eggs were inoculated in the same way with sterile PBS with and without an adjusted concentration of peptidase inhibitors, to be used as a control. The inoculated eggs were sealed with melted paraffin and incubated at 37°C at a relative humidity of 55-60%. The survival of the embryos was monitored by candling the eggs daily. At the end of the incubation period (10 days) the eggs were placed at -20°C for two hours to kill the embryos and to avoid hatching. The allantoic fluid was harvested and examined microscopically for the detection of flagellates, before the embryos were necropsied. Afterwards, samples from different organs (liver, heart, lung, proventriculus, gizzard, kidney, spleen, and intestine) were preserved in 10% buffered neutral formalin and later on embedded in paraffin wax for histological examination. […] Additionally, samples from liver and gut were preserved at -20°C for polymerase chain reaction (PCR). DNA was extracted from tissue samples applying the Dneasy® Tissue Kit (Qiagen, Vienna, Austria), according to the manufacturer instructions. PCR was performed following the protocol of Grabensteiner and Hess (Vet. Parasitol. 142 (2006), 223-230). The embryos that died during the experiments were exposed to the same examination procedures. During necropsy autoclaved scissors and disposable tweezers were used for collecting the samples to avoid cross contamination.

[6] = tested on: LMH monolayer; assay: Cytopathic effect of T. gallinae cell-free filtrate on LMH monolayer (monolayer detachment, lesion score); type: cell-based, chicken; details: compared with filtrate without inhibitors
Experimental: Permanent chicken liver (LMH) cells were grown in Medium 199 + Earle's salts + L-Glutamine (Invitrogen/Gibco, Paisley, U.K.). The medium was supplemented with 10% of FBS, 10% Tryptose Phosphate broth, penicillin (40,000 IU/ml) and streptomycin ([…]) (all Invitrogen/Gibco, Paisley, U.K). One milliliter of the media suspension containing 1x10^6 cells was inoculated into 75 cm^2 flasks with filtered caps (Sarstedt, Wiener Neudorf, Austria) containing 6 ml medium. Cells were kept in a controlled atmosphere of 5% CO2 at 37°C and around 85-90% humidity. After 72 h of incubation, a confluent monolayer of LMH cells was obtained with an average of 7x10^6 cells per flask. Cells were passaged every three to four days depending on their density.
as §3
Each monolayer was investigated visually by an inverted 158 light microscope to detect the effect of the cell-free filtrates on LMH monolayer. Assesment of the monolayer was performed as recently described (Amin et al., Vet.Parasitol. (2011), doi: 10.1016/j.vetpar.2011.11.037).
Firstly, preliminary experiments were done to establish the concentration of each peptidase inhibitor which was not toxic to the monolayer cell culture. In these initial experiments different concentrations of the following peptidase inhibitors were added to not-infected monolayer: 0.2 mM, 0.5 mM, 1 mM Phenylmethylsulfonyl fluoride (PMSF) as serine peptidase inhibitor, 1 µM, 2.5 µM, 5 µM pepstatin A as aspartic peptidase inhibitor, 135 µM, 540 µM, 1 mM N-α-p-Tosyl-L-Lysine chloromethyl ketone (TLCK) as cysteine and some serine peptidase inhibitor, and 70 µM 140 µM, 270 µM L-3-carboxyl-2,3-trans-epoxysuccinylleucylamido (4-guanidino) butane (E-64) as cysteine peptidase inhibitor (all purchased from Sigma-Aldrich, Steinheim, Germany).

[7] = tested on: T. gallinae trophozoites; assay: Viability of trichomonads with peptidase inhibitors (trypan blue staining); type: cell-based; details: read-out: optimum concentration that had no effect on the viability of T. gallinae trophozoites
Experimental: as §4

[8] = tested on: peptidase activity in T. gallinae cell-free filtrates; assay: One-dimensional substrate (0.2% gelatin) SDS-PAGE zymogram of cell-free filtrates; type: biochemical; details: clone 5895-C1/06 P49 and P130
Experimental: as §1, §2

CC(C)CC(NC(=O)C1OC1C(=O)O)C(=O)NCCCCNC(=N)N [E-64, L-3-carboxyl-2,3-trans-epoxysuccinylleucylamido (4-guanidino) butane]
cytotoxic effect on the embryos, mortalities or pathomorphological changes in negative control groups ([1]; 270 µM E-64 in PBS): no cytotoxic effect on the embryos
band pattern in conventional SDS-PAGE ([2]; 270 µM E-64): pattern of sharp bands
cytotoxicity at 270 µM [3]: 37.1%
liver abscesses produced by Entamoeba histolytica [4]: greatly reduced
PCR results: infection in the presence versus absence of inhibitor ([5]; 270 µM E-64): no considerable differences
detection of trichomonad nucleic acid by ISH ([5]; 270 µM E-64): nucleic acid of trichomonds was demonstrated by ISH in the hepatic parenchyma
histopathological examination of different organs of infected embryos ([5]; 270 µM E-64): no histological changes
PCR results from the liver and gut of infected embryos ([5]; 270 µM E-64 coincubated): positive PCR results
cytopathic effects induced by trichomonads (detachment of the monolayer) ([6]; 270 µM E64 added to cell-free filtrate of clone 5895-C1/06): best inhibition
cytopathic effects induced by trichomonads (detachment of the monolayer) ([6]; 270 µM E64 added to cell-free filtrate of clone 5895-C1/06, listed as E64): partially inhibited cytopathic effects
MNTC [7]: 270 µM
proteolytic bands on zymograms of cell-free filtrates ([8]; 270 µM E-64): No proteolytic bands were observed

O=S(=O)(F)Cc1ccccc1 [PMSF, Phenylmethylsulfonyl fluoride]
band pattern in conventional SDS-PAGE ([2]; 1 mM PMSF): this pattern was not prominent
cytopathic effects induced by trichomonads (detachment of the monolayer) ([6]; 1 mM PMSF added to cell-free filtrate of clone 5895-C1/06): partially inhibited cytopathic effects
proteolytic bands on zymograms of cell-free filtrates ([8]; 1 mM PMSF): same proteolytic regions as the sample without inhibitors

CC(C)CC(=O)N[C@H](C(=O)N[C@H](C(=O)N[C@@H](CC(C)C)[C@@H](O)CC(=O)N[C@@H](C)C(=O)N[C@@H](CC(C)C)[C@@H](O)CC(=O)O)C(C)C)C(C)C [Pepstatin A, pepstatin A] (Isovaleryl-VV[Sta]A[Sta]-OH)
band pattern in conventional SDS-PAGE ([2]; 5 µM Pepstatin A): this pattern was not prominent
cytopathic effects induced by trichomonads (detachment of the monolayer) ([6]; 5 µM Pepstatin A added to cell-free filtrate of clone 5895-C1/06): no inhibitory effect
proteolytic bands on zymograms of cell-free filtrates ([8]; 5 µM Pepstatin A): same proteolytic regions as the sample without inhibitors

Cc1ccc(S(=O)(=O)N[C@@H](CCCCN)C(=O)CCl)cc1 [TLCK, N-α-p-Tosyl-L-Lysine chloromethyl ketone]
cytotoxic effect on the embryos, mortalities or pathomorphological changes in negative control groups ([1]; 675 µM TLCK in PBS): no cytotoxic effect on the embryos
band pattern in conventional SDS-PAGE ([2]; 1 mM TLCK): pattern of sharp bands
PCR results from the liver and gut of infected embryos ([5]; 675 µM TLCK coincubated): positive PCR results
PCR results: infiltration of the flagellate to the liver ([5]; 675 µM TLCK, compared with E-64): more distinct inhibitory effect on the infiltration of the flagellate to the liver than E-64
detection of trichomonad nucleic acid by ISH ([5]; 675 µM TLCK): nucleic acid of trichomonds was demonstrated by ISH in the hepatic parenchyma
histopathological examination of different organs of infected embryos ([5]; 675 µM TLCK): no histological changes
cytopathic effects induced by trichomonads (detachment of the monolayer) ([6]; 135 µM TLCK added to cell-free filtrate of clone 5895-C1/06): partially inhibited cytopathic effects
MNTC [7]: 675 µM
proteolytic bands on zymograms of cell-free filtrates ([8]; 1 mM TLCK): No proteolytic bands were observed
